pIC50: −log10 of the molar value.
How the values were obtained:
Assay type in all cases: cell-based
[1] = target: T1, CDK4 (Homo sapiens, UniProt P11802); assay: Immunoblot of CDK4 levels in Jurkat cells; settings: 1 μM; for degradation of CDK4 (immunoblot): 4 h; for protein abundance of CDK4 (immunoblot): 16 h
T1 construct: immunoblots from Jurkat cells treated with the indicated compounds; endogenous in cells; host or cells: Jurkat cells
Protocol: (§1) FIG. 1A is a set of immunoblots of Jurkat cells treated with 1 μM of the indicated (DKY709 and Ia-1 to Ia-8) compounds for 4 hours, showing the levels of Ikaros, Helios, CDK4, CDK6, and tubulin for each compound.
(§2) FIG. 1B is a set of immunoblots of Jurkat cells treated with the Helios degrader DKY709, the triple degrader Ia-8, and the paired negative control compound 17 for 4 hours, showing the levels of Ikaros, Helios, CDK4, CDK6, and tubulin for each compound at 0.1 μM and 1 μM.
(§3) FIG. 2 is a set of immunoblots of Jurkat cells treated with the indicated compounds (palbociclib, DKY709, Ia-8, and 17) at 0.1 μM and 1 μM for 16 hours.
(§4) The structure of DKY709 (3-(5-(1-benzylpiperidin-4-yl)-1-oxoisoindolin-2-yl)piperidine-2,6-dione) is shown here: […]

[2] = test system: Jurkat cells; assay: Propidium iodide staining for DNA content (G1 arrest); settings: 100 nM, 24 h
Protocol: FIG. 3A is a set of histograms and the quantification of the DNA content using propidium iodide (PI) staining after treatment of Jurkat cells with the indicated compounds (palbociclib, DKY709, 18, Ia-6, 16, Ia-8, and 17) at 100 nM for 24 h.
The structure of 18 (N-(4-(4-(6-((6-acetyl-8-cyclopentyl-5-methyl-7-oxo-7,8-dihydropyrido[2,3-d]pyrimidin-2-yl)amino)pyridin-3-yl)piperazin-1-yl)butyl)-2-((2-(1-methyl-2,6-dioxopiperidin-3-yl)-1,3-dioxoisoindolin-4-yl)amino)acetamide) is shown here: […]

[3] = test system: phosphorylated Rb; assay: Immunoblot of phosphorylated Rb in Jurkat cells; settings: 1 μM, 16 h
Protocol: as §3

[4] = test system: Jurkat cells; assay: IL-2 levels by ELISA after TCR stimulation; settings: Jurkat cells pre-treated with 1 μM for 24 h, then TCR-stimulated for 18 h
Protocol: FIG. 4 is a graph of [IL2] for the indicated compounds in Jurkat cells upon TCR-stimulation with a-CD3/CD28.
Quantification of IL-2 levels by ELISA from Jurkat cells pre-treated with 1 μM of the indicated compounds for 24 h and then TCR-stimulated for 18 h. Results are shown in FIG. 4 as mean±SD (untreated, n=3; other conditions, n=4) (*p<0.05). […] The structure of 19 (N-(4-(4-(6-((6-acetyl-8-cyclopentyl-5-methyl-7-oxo-7,8-dihydropyrido[2,3-d]pyrimidin-2-yl)amino)pyridin-3-yl)piperazin-1-yl)butyl)-2-((2-(2,6-dioxopiperidin-3-yl)-1,3-dioxoisoindolin-4-yl)oxy)acetamide) is shown here: […]

[5] = target: T2, Helios (Homo sapiens, UniProt Q96SW2+Q9UKS7); assay: Immunoblot of Helios levels in Jurkat cells; settings: 1 μM; for degradation of Helios (immunoblot): 4 h; for protein abundance of Helios (immunoblot): 16 h
T2 construct: immunoblots from Jurkat cells treated with the indicated compounds; endogenous in cells; host or cells: Jurkat cells
Protocol: as §1, §2, §3, §4

[6] = target: T3, CDK6 (Homo sapiens, UniProt Q00534); assay: Immunoblot of CDK6 levels in Jurkat cells; settings: 1 μM; for degradation of CDK6 (immunoblot): 4 h; for protein abundance of CDK6 (immunoblot): 16 h
T3 construct: immunoblots from Jurkat cells treated with the indicated compounds; endogenous in cells; host or cells: Jurkat cells
Protocol: as §1, §2, §3, §4

[7] = test system: Jurkat cells; assay: Cell proliferation quantified by CellTiter-Glo; settings: Homo sapiens, 72 h, dose curve, 3 d, read-out: anti-proliferative activity
Text: FIG. 3B is a graph of normalized luminescence versus concentration (log[inhibitor], M) of the indicated compounds (palbociclib, Ia-8, and 17) assessed by CellTiterGlo after treatment of Jurkat cells for 3 d.

[8] = target: T4, Ikaros (Homo sapiens, UniProt Q13422); assay: Immunoblot of Ikaros levels in Jurkat cells; settings: 1 μM, 4 h
T4 construct: endogenous in cells; host or cells: Jurkat cells
Protocol: as §1, §2, §4

T1 sequence (P11802 whole entry): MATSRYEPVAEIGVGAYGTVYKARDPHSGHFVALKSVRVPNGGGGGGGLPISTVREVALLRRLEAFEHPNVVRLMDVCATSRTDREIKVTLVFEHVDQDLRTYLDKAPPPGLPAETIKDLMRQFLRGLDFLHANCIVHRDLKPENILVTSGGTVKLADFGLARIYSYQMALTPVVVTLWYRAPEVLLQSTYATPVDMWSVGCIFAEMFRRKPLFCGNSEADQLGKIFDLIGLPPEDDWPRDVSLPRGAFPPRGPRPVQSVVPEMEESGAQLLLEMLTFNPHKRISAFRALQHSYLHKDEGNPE
T2 sequence (Q9UKS7 whole entry): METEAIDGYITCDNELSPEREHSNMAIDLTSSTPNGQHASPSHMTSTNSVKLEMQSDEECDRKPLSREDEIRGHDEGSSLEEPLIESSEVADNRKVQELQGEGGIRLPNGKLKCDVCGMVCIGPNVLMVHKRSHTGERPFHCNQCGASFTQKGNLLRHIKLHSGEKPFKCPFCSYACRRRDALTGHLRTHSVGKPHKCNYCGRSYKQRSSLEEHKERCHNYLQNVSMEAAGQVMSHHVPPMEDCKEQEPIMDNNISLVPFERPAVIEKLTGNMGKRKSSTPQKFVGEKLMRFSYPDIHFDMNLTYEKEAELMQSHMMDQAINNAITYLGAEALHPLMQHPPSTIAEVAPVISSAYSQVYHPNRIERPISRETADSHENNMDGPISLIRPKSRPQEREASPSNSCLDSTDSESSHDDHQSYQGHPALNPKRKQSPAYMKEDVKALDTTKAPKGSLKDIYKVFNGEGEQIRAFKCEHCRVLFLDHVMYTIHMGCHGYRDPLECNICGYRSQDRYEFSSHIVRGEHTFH
T2 sequence (Q96SW2 whole entry): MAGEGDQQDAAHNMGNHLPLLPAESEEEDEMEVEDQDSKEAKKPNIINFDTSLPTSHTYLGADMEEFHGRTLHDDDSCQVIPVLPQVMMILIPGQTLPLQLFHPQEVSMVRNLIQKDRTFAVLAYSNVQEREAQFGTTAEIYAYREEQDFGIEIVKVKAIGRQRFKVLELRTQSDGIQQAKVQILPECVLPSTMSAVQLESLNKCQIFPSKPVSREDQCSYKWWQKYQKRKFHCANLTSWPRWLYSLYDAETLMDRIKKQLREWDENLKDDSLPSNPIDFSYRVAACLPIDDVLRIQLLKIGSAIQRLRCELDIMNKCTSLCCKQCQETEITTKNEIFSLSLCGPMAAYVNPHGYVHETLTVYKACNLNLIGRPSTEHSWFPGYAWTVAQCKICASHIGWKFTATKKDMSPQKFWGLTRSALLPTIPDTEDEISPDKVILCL
T2 sequence (Q16531 whole entry partner): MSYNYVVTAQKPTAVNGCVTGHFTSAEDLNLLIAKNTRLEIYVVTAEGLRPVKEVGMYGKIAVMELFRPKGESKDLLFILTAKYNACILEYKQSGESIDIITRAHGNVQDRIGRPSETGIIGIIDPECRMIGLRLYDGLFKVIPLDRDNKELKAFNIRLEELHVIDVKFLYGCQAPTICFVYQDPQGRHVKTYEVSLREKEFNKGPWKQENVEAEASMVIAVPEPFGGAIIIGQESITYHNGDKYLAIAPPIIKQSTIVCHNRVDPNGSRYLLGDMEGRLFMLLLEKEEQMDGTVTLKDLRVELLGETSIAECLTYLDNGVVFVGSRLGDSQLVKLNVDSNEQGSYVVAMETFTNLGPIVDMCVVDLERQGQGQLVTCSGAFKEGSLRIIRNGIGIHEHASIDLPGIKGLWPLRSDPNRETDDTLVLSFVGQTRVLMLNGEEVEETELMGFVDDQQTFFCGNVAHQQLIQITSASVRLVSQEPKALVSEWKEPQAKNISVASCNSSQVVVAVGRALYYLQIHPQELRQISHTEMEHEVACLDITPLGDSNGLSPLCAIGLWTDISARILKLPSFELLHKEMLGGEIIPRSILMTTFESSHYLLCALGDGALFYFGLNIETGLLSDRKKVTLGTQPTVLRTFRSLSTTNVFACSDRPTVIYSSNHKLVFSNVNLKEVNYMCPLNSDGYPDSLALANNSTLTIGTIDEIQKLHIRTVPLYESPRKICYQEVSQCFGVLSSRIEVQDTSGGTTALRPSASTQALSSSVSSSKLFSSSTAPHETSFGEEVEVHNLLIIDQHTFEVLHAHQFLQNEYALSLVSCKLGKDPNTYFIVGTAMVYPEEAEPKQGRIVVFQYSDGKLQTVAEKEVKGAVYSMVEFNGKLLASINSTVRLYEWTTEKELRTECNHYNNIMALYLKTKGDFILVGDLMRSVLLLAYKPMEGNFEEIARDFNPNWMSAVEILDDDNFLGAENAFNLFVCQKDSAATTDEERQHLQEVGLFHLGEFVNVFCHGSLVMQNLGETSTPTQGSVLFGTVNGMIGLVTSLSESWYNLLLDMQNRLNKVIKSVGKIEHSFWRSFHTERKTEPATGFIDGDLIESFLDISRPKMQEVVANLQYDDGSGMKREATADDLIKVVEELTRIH
T3 sequence (Q00534 whole entry): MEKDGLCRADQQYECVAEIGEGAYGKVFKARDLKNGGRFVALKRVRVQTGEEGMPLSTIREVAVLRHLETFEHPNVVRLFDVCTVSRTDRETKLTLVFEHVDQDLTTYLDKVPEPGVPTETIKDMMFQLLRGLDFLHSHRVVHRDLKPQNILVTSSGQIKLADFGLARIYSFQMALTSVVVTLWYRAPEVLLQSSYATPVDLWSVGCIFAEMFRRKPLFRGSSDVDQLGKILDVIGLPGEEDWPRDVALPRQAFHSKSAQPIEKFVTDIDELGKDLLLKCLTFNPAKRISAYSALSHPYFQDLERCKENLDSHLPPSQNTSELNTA
T4 sequence (Q96SW2 whole entry partner): as the sequence (Q96SW2 whole entry) above
T4 sequence (Q16531 whole entry partner): as the sequence (Q16531 whole entry partner) above
T4 sequence (Q13422 whole entry): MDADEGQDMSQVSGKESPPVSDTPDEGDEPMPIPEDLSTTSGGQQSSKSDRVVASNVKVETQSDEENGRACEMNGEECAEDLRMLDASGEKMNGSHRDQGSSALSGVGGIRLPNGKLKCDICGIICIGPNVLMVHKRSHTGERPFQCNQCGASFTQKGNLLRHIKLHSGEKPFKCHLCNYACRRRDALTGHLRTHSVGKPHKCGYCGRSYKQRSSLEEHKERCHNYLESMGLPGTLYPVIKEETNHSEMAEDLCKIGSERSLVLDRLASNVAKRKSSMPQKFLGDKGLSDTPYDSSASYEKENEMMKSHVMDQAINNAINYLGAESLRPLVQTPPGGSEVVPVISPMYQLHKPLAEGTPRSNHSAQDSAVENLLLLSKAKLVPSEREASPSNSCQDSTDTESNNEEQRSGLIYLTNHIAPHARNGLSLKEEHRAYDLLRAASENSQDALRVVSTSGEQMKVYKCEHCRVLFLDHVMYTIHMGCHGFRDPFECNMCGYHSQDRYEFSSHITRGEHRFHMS

For `O=C1CCC(N2Cc3cc(C4CCN(Cc5ccccc5)CC4)ccc3C2=O)C(=O)N1` (centres unmarked) [DKY709, 3-(5-(1-benzylpiperidin-4-yl)-1-oxoisoindolin-2-yl)piperidine-2,6-dione, reference compound], the “degradation of CDK4 (immunoblot)” value [1] was “did not affect CDK4 or CDK6 abundance”, the “induction of G1 arrest” value [2] was “but not DKY709, induced G1 arrest” and the “levels of phosphorylated Rb (immunoblot)” value [3] was “without affecting the levels of phosphorylated Rb”. The IL-2 secretion [4] was “elevated IL-2 secretion, although it did not reach statistical significance”, the “degradation of Helios (immunoblot)” value [5] was “only induced degradation of Helios” and the “protein abundance of Helios (immunoblot)” value [5] was “induced Helios degradation”. For the same compound, the “degradation of CDK6 (immunoblot)” value [6] was “did not affect CDK4 or CDK6 abundance”.

In the case of `CC(=O)c1c(C)c2cnc(Nc3ccc(N4CCN(CCOc5ccc(CN6CCC(c7ccc8c(c7)CN(C7CCC(=O)NC7=O)C8=O)CC6)cc5)CC4)cn3)nc2n(C2CCCC2)c1=O` (centres unmarked) [Ia-8, 3-(5-(1-(4-(2-(4-(6-((6-acetyl-8-cyclopentyl-5-methyl-7-oxo-7,8-dihydropyrido[2,3-d]pyrimidin-2-yl)amino)pyridin-3-yl)piperazin-1-yl)ethoxy)benzyl)piperidin-4-yl)-1-oxoisoindolin-2-yl)piperidine-2,6-dione], the pIC50 [7] was 6.78, the “degradation of Ikaros (immunoblot)” value [8] was “but not Ikaros” and the “degradation of CDK4 (immunoblot)” value [1] was “induced the degradation of CDK4, CDK6, and Helios”. For the same compound, the “protein abundance of CDK4 (immunoblot)” value [1] was “induced the triple degradation of Helios, CDK4, and CDK6”, the “induction of G1 arrest” value [2] was “induced G1 arrest” and the “levels of phosphorylated Rb (immunoblot)” value [3] was “reduced the levels of phosphorylated Rb”. For the same compound, the IL-2 secretion [4] was “induced elevated levels of IL2 that were comparable to that of 18”, the “degradation of Helios (immunoblot)” value [5] was “induced the degradation of CDK4, CDK6, and Helios” and the “protein abundance of Helios (immunoblot)” value [5] was “induced the triple degradation of Helios, CDK4, and CDK6”. The “degradation of CDK6 (immunoblot)” value [6] was “induced the degradation of CDK4, CDK6, and Helios” and the “protein abundance of CDK6 (immunoblot)” value [6] was “induced the triple degradation of Helios, CDK4, and CDK6”.

In the case of `Nc1cccc2c1CN(C1CCC(=O)NC1=O)C2=O` (centres unmarked) [Lenalidomide, reference compound], the IL-2 secretion [4] was “elevated IL-2 secretion, although it did not reach statistical significance”.

With `CC(=O)c1c(C)c2cnc(Nc3ccc(N4CCN(CCOc5ccc(CN6CCC(c7ccc8c(c7)CN(C7CCC(=O)N(C)C7=O)C8=O)CC6)cc5)CC4)cn3)nc2n(C2CCCC2)c1=O` (centres unmarked) [compound 17, 3-(5-(1-(4-(2-(4-(6-((6-acetyl-8-cyclopentyl-5-methyl-7-oxo-7,8-dihydropyrido[2,3-d]pyrimidin-2-yl)amino)pyridin-3-yl)piperazin-1-yl)ethoxy)benzyl)piperidin-4-yl)-1-oxoisoindolin-2-yl)-1-methylpiperidine-2,6-dione] the pIC50 [7] was 6.61, the “degradation of CDK4 (immunoblot)” value [1] was “had no degradation activity” and the “protein abundance of CDK4 (immunoblot)” value [1] was “had minimal effects”. For the same compound, the “induction of G1 arrest” value [2] was “did not”, the “levels of phosphorylated Rb (immunoblot)” value [3] was “had minimal effects” and the IL-2 secretion [4] was “had activity similar to that of palbociclib”. The “degradation of Helios (immunoblot)” value [5] was “had no degradation activity”, the “protein abundance of Helios (immunoblot)” value [5] was “had minimal effects” and the “degradation of CDK6 (immunoblot)” value [6] was “had no degradation activity”. The “protein abundance of CDK6 (immunoblot)” value [6] was “had minimal effects”.

Reference: patent publication US20240376096A1, “SMALL MOLECULE CYCLIN DEPENDENT KINASE 4/6 (CDK4/6) AND IKZF2 (HELIOS) DEGRADERS AND METHODS OF USE THEREOF” (DANA-FARBER CANCER INSTITUTE, INC., priority 2021, published 2024)
